Publication PMC5466683, “Development and Evaluation of ^18F-IRS for Molecular Imaging Mutant EGF Receptors in NSCLC” (Scientific Reports, 2017)
Blank lines part the entries; values can stand above or below the compound they belong to.

Columns and labels:
[1] = test system: H520 xenografts; assay: Ex vivo biodistribution, tumor uptake; type: in vivo, BALB/c nude mice; conditions: H520 tumors, 120 min after injection
Experimental: (§1) All animal studies were conducted in accordance with the China Guidelines for Animal Care and Ethic for Animal Experiments and the experimental protocols were approved by the Animal Use and Care Committee of Harbin Medical University. Female BALB/c nude mice (from the Shanghai Slack Experimental Animal Center of qualified animals SCXK) approximately 4–6 weeks of age and mean weight 20–22 g were used. Approximately 5 × 10^6 of cultured HCC827, H1975, H358 and H520 cells were suspended in PBS/Matrigel (1:1) (BD Bioscience) and subcutaneously implanted in the right shoulders of Female BALB/c nude mice. PET/CT studies were performed when the tumor volume reached 250 mm^3 (4–6 weeks after inoculation).
(§2) Biodistribution studies were performed in BALB/c nude mice bearing HCC827, H1975, H358 and H520 xenografts by injecting 3.7MBq of ^18F-IRS into the tail vein (n = 4 per group) and then sacrificing the animals at 30 min, 60 min and 120 min after injection. Tumor and normal tissues were excised and weighed, and the radioactivity was measured using a gamma-counter (Wizard 2, PerkinElmer). All measurements were background-subtracted and decay-corrected to the time of injection and then averaged together. The radioactivity uptake in tumor and normal tissues was expressed as the percentage of the injected dose per gram of organ (% ID/g).

[2] = test system: H358 xenografts; assay: Ex vivo biodistribution, tumor uptake; type: in vivo, BALB/c nude mice; conditions: H358 tumors, 120 min after injection
Experimental: as §1, §2

[3] = test system: HCC827 xenografts; assay: Ex vivo biodistribution, tumor uptake; type: in vivo, BALB/c nude mice
Experimental: as §1, §2

[4] = test system: HCC827 xenografts; assay: In vivo PET/CT imaging and blocking of tumor-bearing mice; set-up: species or system BALB/c nude mice
Experimental: as §1
(§3) PET/CT imaging of tumor-bearing mice was performed on a clinical time-of-flight (TOF) 64-slice PET/Computed tomography (CT) scanner (Discovery 790 Elite, GE healthcare). The mice bearing tumors (for each group n = 4) were injected with 3.7 MBq (100 μCi) of ^18F-IRS into the tail vein. At 30 min, 60 min and 120 min after injection, the mice were anesthetized with 2% isoflurane and placed near the center of the field of view of the PET/CT scanner in prone position. For blocking studies, gefitinib (100 mg/kg) was injected into HCC827 xenografts nude mice (n = 4) via tail vein 60 min before PET/CT imaging. The mice were imaged as described above 120 min after injection.
(§4) The images were reconstructed using a two-dimensional ordered-subset expectation maximization (OSEM) algorithm. For each scan, regions of interest (ROIs) were drawn over the tumor and major organs using the AW4.6 software (GE Healthcare) on decay-corrected whole-body coronal images. The radioactivity concentrations (accumulations) within the tumor, muscle were obtained from mean pixel values within the multiple ROI volumes and then converted to megabecquerels per milliliter per minute using the calibration factor determined for the PET system. These values were then divided by the administered activity to obtain (assuming a tissue density of 1 g/ml) an image ROI-derived percent injected dose per gram (% ID/g).

[5] = test system: HCC827 cells; assay: Cellular uptake, efflux and blocking assay; type: cell-based, human; conditions: for cellular uptake: HCC827 cells
Experimental: (§5) Cells were trypsinized and seeded overnight in 12-well culture plates at a density of 1 × 10^5 cells per well (1 × 10^5 cells/1.0 mL/well). ^18F-IRS (37 kBq/1.0 mL/well) in 1 ml of serum free 1640 medium was added to each well and incubated at 37 °C for 15 min, 30 min, 60 min and 120 min. Triplicates were carried out for each time point. One milliliter of ice-cold PBS was used to intercept the uptake of tracer. The supernatants were aspirated and the cells were rinsed twice with 1 mL of ice-cold PBS to remove surface-bound radioactive ligand. After washing twice with PBS, the cells were harvested by the addition of 250 μl of 0.1 N NaOH. Efflux assays were performed after 120 min of incubation with ^18F-IRS and then the media was removed and replaced with serum free 1640 medium without ^18F-IRS. At 15 min, 30 min, 60 min and 120 min, the media was removed and the cells washed twice with ice-cold PBS. 200 μl of 0.1 N NaOH were added to […] the cells and then the wells were washed twice with 1 ml of ice-cold PBS. The cell solution and the PBS from each washed well were recovered and counted with CPM in a gamma counter (Wizard 2, PerkinElmer). The results were calculated using the same cellular uptake formula. For blocking experiments, gefitinib (100 μmol/L) was added to HCC827 cells. After 60 min of incubation, the uptake and efflux assays in HCC827 cells were repeated thrice.

[6] = Biodistribution and clearance in normal organs of tumor-bearing mice; type: in vivo, BALB/c nude mice
Experimental: as §3, §2

[7] = test system: NSCLC with responsive EGFR exon 19 deleted; assay: PET/CT examination of patients with NSCLC; type: in vivo, human
Description: This study (ClinicalTrials.gov number, NCT03031522) was approved by the Medical Ethics Review Committee of the Fourth Hospital of Harbin Medical University. Subjects signed written informed consent after receiving an explanation of the study. The images provided in this article have been agreed by the subjects. The diagnosis was confirmed by histopathological examination. Three patients confirmed having NSCLC with responsive EGFR exon 19 deleted by histopathology participated in the study from January 2015 to February 2016 (Table 2). ^18F-IRS scans were performed on PET/CT (Discovery 790 Elite; GE healthcare). Approximately 222MBq (6 mCi) of ^18F-IRS was administered intravenously within 5 minutes. Scanning was in initiated 1 hour after administration of ^18F-IRS. Corresponding whole body CT scans for attenuation correction were acquired using a low-dose protocol. Consecutively, PET emission data were acquired in three-dimensional mode with a 200 × 200 matrix with 3 min emission time per bed position. The maximum standard uptake value (SUVmax) normalized to body weight […] was calculated within the region of interest with the following formula: [measured activity concentration (Bq/mL) · body weight (kg)]/injected activity (Bq). Calculation of the radioactivity concentration included the use of a calibration factor that converted the activity counts into becquerels, and the decay correction of the Advantage Workstation 4.6 workstation (GE Healthcare) was […].

[8] = test system: H1975 cells; assay: Cellular uptake and efflux assay; type: cell-based, human; conditions: 120 min of incubation
Experimental: as §5

[9] = test system: H358 cells; assay: Cellular uptake and efflux assay; type: cell-based, human; conditions: 120 min of incubation
Experimental: as §5

[10] = test system: H520 cells; assay: Cellular uptake and efflux assay; type: cell-based, human; conditions: 120 min of incubation
Experimental: as §5

[11] = test system: H1975 xenografts; assay: In vivo PET/CT imaging of tumor-bearing mice; set-up: species or system BALB/c nude mice; conditions: H1975 tumors, all time points
Experimental: as §1, §3, §4

[12] = test system: H520 xenografts; assay: In vivo PET/CT imaging of tumor-bearing mice; set-up: species or system BALB/c nude mice; conditions: H520 tumors, all time points
Experimental: as §1, §3, §4

[13] = test system: H358 xenografts; assay: In vivo PET/CT imaging of tumor-bearing mice; set-up: species or system BALB/c nude mice; conditions: H358 tumors, all time points
Experimental: as §1, §3, §4

[14] = test system: H3255 cells; assay: MTT cell growth inhibition assay; type: cell-based; conditions: Homo sapiens, NCI-H3255, H3255 cells (EGFR L858R mutant), 48 h
Experimental: (§6) NSCLC having EGFR with L858R mutation is also respond to EGFR kinase inhibitors. H3255 cells expressing EGFR L858R mutant is sensitive to EGFR kinase inhibitors. In order to measure the sensitivity of five NSCLC cell lines to F-IRS, […] assay was performed. Tumor cells were plated at a density of 2 × 10^3 cells/well into 96-well plates in RPMI 1640 with 10% FBS. Cells were kept in the log phase of proliferative activity. Various concentrations of F-IRS added to each well, and incubation was continued for an additional 48 h. Then, 50 μL of MTT solution (2 mg/mL; Sigma) were added to all wells, and incubation was continued for another 2 h. The media containing MTT solution was removed, and the precipitated material was dissolved by adding 100 μL of DMSO. The absorbance was measured with a microplate reader at test and reference wavelengths of […], respectively. The percentage of growth is shown relative to untreated controls.

[15] = test system: H1975 cells; assay: MTT cell growth inhibition assay; type: cell-based; conditions: Homo sapiens, NCI-H1975, H1975 cells (L858R and T790M EGFR mutations), 48 h
Experimental: as §6

[16] = test system: HCC827 cells; assay: MTT cell growth inhibition assay; type: cell-based; conditions: Homo sapiens, HCC827 cells (19 exon deleted mutant EGFR), 48 h
Experimental: as §6

[17] = test system: H358 cells; assay: MTT cell growth inhibition assay; type: cell-based; conditions: Homo sapiens, NCI-H358, H358 cells (WT EGFR), 48 h
Experimental: as §6

[18] = test system: H520 cells; assay: MTT cell growth inhibition assay; type: cell-based; conditions: Homo sapiens, NCI-H520, H520 cells (negative EGFR), 48 h
Experimental: as §6

[19] = test system: H520 cells; set-up: method as in PMID 21152424; conditions: H520 (negative EGFR); cited from earlier work
[20] = test system: H1975; set-up: method as in PMID 15767641; conditions: H1975, L858R and T790M secondary mutation; cited from earlier work
[21] = test system: H358 cell line; set-up: method as in PMID 19826406; conditions: H358 (EGFR wild type); cited from earlier work
[22] = HCC827 tumors, 120 min after i.v. injection of 3.7 MBq
[23] = Mean ± SD of three patients, 60 min after injection
[24] = patient 1, 60 min after injection
[25] = patient 2, 60 min after injection
[26] = patient 3, 60 min after injection

Structure (SMILES): Fc1ccc(Nc2ncnc3cc(OCCOCCOCCOCC[18F])c(OCCCN4CCOCC4)cc23)cc1Cl [^18F-IRS]
- tumor uptake (ex vivo biodistribution) [1]: 1.62 ± 0.08 % ID/g
- tumor uptake (ex vivo biodistribution) [2]: 1.68 ± 0.29 % ID/g
- tumor uptake (ex vivo biodistribution) [3, 22]: 4.27 ± 0.15 % ID/g
- tumor uptake (ex vivo biodistribution) after blocking ([3]; HCC827 xenografts blocked by gefitinib 100 mg/kg, 120 min): 1.12 ± 0.21 ID/g
- accumulation in tumors on PET/CT images [4, 22]: significantly high accumulation
- tumor/muscle ratio (PET quantification) ([4]; HCC827 vs H1975, H358 and H520 xenografts, 120 min, P < 0.01): significantly higher
- tumor uptake on PET/CT after blocking ([4]; HCC827 xenografts, gefitinib 100 mg/kg before imaging, 120 min): blocked by gefitinib
- cellular uptake after blocking ([5]; HCC827 cells treated with 100 μmol/L gefitinib, 120 min of incubation): 0.89 ± 0.12%
- cellular uptake ([5]; 15 min of incubation): 7.51 ± 1.05%
- cellular uptake ([5]; 30 min of incubation): 10.03 ± 0.47%
- cellular uptake ([5]; 120 min of incubation): 14.07 ± 0.98%
- route of elimination ([6]; mice, PET/CT imaging and biodistribution): mainly eliminated through renal clearance
- uptake in all other organs and blood ([6]; tumor-bearing nude mice, except kidneys, intestine and gallbladder): very low
- SUVmax Bladder [7, 23]: 5.11 ± 3.02
- SUVmax Brain [7, 23]: 0.43 ± 0.29
- SUVmax Kidneys [7, 23]: 13.13 ± 0.31
- SUVmax Liver [7, 23]: 10.48 ± 0.44
- SUVmax Lungs [7, 23]: 0.82 ± 0.23
- SUVmax Muscles [7, 23]: 0.65 ± 0.14
- SUVmax Small intestines [7, 23]: 8.05 ± 1.67
- SUVmax Tumor [7, 23]: 2.44 ± 0.49
- SUVmax Bladder [7, 24]: 8.51
- SUVmax Brain [7, 24]: 0.19
- SUVmax Kidneys [7, 24]: 12.96
- SUVmax Liver [7, 24]: 10.52
- SUVmax Lungs [7, 24]: 0.58
- SUVmax Muscles [7, 24]: 0.73
- SUVmax Small intestines [7, 24]: 7.17
- SUVmax Tumor [7, 24]: 2.19
- SUVmax Bladder [7, 25]: 4.11
- SUVmax Brain [7, 25]: 0.76
- SUVmax Kidneys [7, 25]: 13.49
- SUVmax Liver [7, 25]: 10.9
- SUVmax Lungs [7, 25]: 1.04
- SUVmax Muscles [7, 25]: 0.75
- SUVmax Small intestines [7, 25]: 9.99
- SUVmax Tumor [7, 25]: 2.12
- SUVmax Bladder [7, 26]: 2.72
- SUVmax Brain [7, 26]: 0.34
- SUVmax Kidneys [7, 26]: 12.95
- SUVmax Liver [7, 26]: 10.02
- SUVmax Lungs [7, 26]: 0.85
- SUVmax Muscles [7, 26]: 0.49
- SUVmax Small intestines [7, 26]: 7.01
- SUVmax Tumor [7, 26]: 3.01
- main route of elimination ([7]; patients with NSCLC): urinary tract, followed by the hepatobiliary
- changes in heart rates, respiration rates, and blood pressure ([7]; patients with NSCLC, after i.v. injection): no significant changes
- cellular uptake [8]: 1.49 ± 0.05%
- cellular uptake [9]: 1.82 ± 0.19%
- cellular uptake [10]: 2.31 ± 0.36%
- tumor uptake on PET/CT images [11]: unobviously detectable
- tumor uptake on PET/CT images [12]: unobviously detectable
- tumor uptake on PET/CT images [13]: unobviously detectable

- IC50 [14]: 13.1 ± 4.4 nM
- IC50 [15]: 2270 ± 1170 nM
- IC50 [16]: 5.6 ± 0.2 nM
- IC50 [17]: 7050 ± 2300 nM
- IC50 [18]: 18400 ± 2210 nM
Structure (SMILES): FCCOCCOCCOCCOc1cc2ncnc(Nc3ccc(F)c(Cl)c3)c2cc1OCCCN1CCOCC1 [F-IRS]

Structure (SMILES): COc1cc2ncnc(Nc3ccc(F)c(Cl)c3)c2cc1OCCCN1CCOCC1 [gefitinib]
- sensitivity of cell line [19]: do not respond
- sensitivity of cell line [20]: conferring resistance
- sensitivity of cell line [21]: less sensitive
